Reference: patent US4175081A, “5-Substituted thiadiazole ureas” (priority 1977, dated 1979)

Experiments:
[1] = system: Cotton (CT); assay: Post-emergence herbicide test; type: in vivo, Gossypium hirsutum var. DPL smooth leaf; details: Gossypium hirsutum, post-emergence, 336 h, two weeks after treatment; for pest or weed control at 8966.8 g/ha: 8 lb/acre
Outline: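 This greenhouse post-emergence test measured how well spray treatments controlled cotton. Seedlings of Gossypium hirsutum var. DPL smooth leaf, with expanded cotyledons and a first true leaf 1' in length, were sprayed with 50 ml formulations in a belt-fed spray hood. They were then returned to the greenhouse and watered only by sub-irrigation. Injury was scored visually as % control after two weeks.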

[2] = system: Crabgrass (CG); assay: Post-emergence herbicide test; type: in vivo, Digitaria sanquinalis; details: Digitaria sanguinalis, post-emergence, 336 h, two weeks after treatment; for pest or weed control at 8966.8 g/ha: 8 lb/acre
Outline: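 Crabgrass (Digitaria sanquinalis) was surface seeded individually in 3' plastic pots of potting soil, covered with screened soil, and watered by sub-irrigation in greenhouse trays. Planting was staggered so seedlings reached the target stage together. Post-emergence sprays were applied in a hood with a removable belt and fixed nozzle, and control was visually rated two weeks after treatment.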

[3] = system: Johnson grass (JG); assay: Post-emergence herbicide test; type: in vivo, Sorgum helepense; details: Sorghum halepense, 336 h, two weeks after treatment; for pest or weed control at 8966.8 g/ha: 8 lb/acre
Outline: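 Visual injury or control scores taken 2 weeks after a post-emergence spray of pot-grown plants. Application was 8 lbs/acre (or 4 lbs/acre) in 38 gal/acre. Plants were held in the greenhouse with sub-irrigation only.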

[4] = system: Johnson grass (JG); assay: Pre-emergence herbicide test; type: in vivo, Sorgum helepense; details: Sorghum halepense, 336 h, two weeks after treatment; for pest or weed control at 8966.8 g/ha: 8 lb/acre
Outline: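 Visual injury or control rating two weeks post-treatment, after pre-emergence spray of 8 or 4 lbs active per acre (38 gal/acre) onto pots sown the previous day. Greenhouse watering by sub-irrigation only.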

[5] = system: Bean (BN); assay: Post-emergence herbicide test; type: in vivo, Phaseolus vulgaris var. Black Valentine; details: Phaseolus vulgaris, post-emergence, 336 h, two weeks after treatment; for pest or weed control at 8966.8 g/ha: 8 lb/acre
Outline: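 Bean seedlings (Phaseolus vulgaris var. Black Valentine) were grown in potting soil in 3' pots until the primary leaves expanded. They were then sprayed under a hood with a removable belt and fixed nozzle, using 50 ml formulations. Afterward they were returned to the greenhouse and watered only by sub-irrigation. Percent control was judged visually two weeks after treatment.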

[6] = system: Amaranth pigweed (PW); assay: Pre-emergence herbicide test; type: in vivo, Amaranthus retroflexus; details: 336 h, two weeks after treatment; for pest or weed control at 8966.8 g/ha: 8 lb/acre
Outline: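 Visual injury or control ratings were made at two weeks on pre-emergence pots, sub-irrigated in the greenhouse. Seeds were sown a day before a hood spray delivering 8 lbs/acre (or 4 lbs/acre) of compound in 38 gallons per acre.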

[7] = system: Cotton (CT); assay: Pre-emergence herbicide test; type: in vivo, Gossypium hirsutum var. DPL smooth leaf; details: Gossypium hirsutum, 336 h, two weeks after treatment; for pest or weed control at 8966.8 g/ha: 8 lb/acre
Outline: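 Visual injury/control ratings were taken at two weeks post-spray. Pots seeded a day earlier received compound pre-emergence at 8 lbs/acre, or 4 lbs/acre, in a 38 gallon/acre spray volume, and were then held in the greenhouse, watered only from below.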

[8] = system: Turnip (TP); assay: Post-emergence herbicide test; type: in vivo, Brassica sp.; details: Brassica rapa, post-emergence, 336 h, two weeks after treatment; for pest or weed control at 8966.8 g/ha: 8 lb/acre
Outline: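 A greenhouse post-emergence herbicide test on turnip. Seeds were sown on the surface of potting soil in 3' plastic pots, lightly covered with screened soil and watered from below. Planting was timed so seedlings had 1 or 2 true leaves above the cotyledons at spraying, done in a hood with a fixed nozzle. Control or injury was scored by eye after two weeks.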

[9] = system: Barnyard grass (BG); assay: Post-emergence herbicide test; type: in vivo; details: Echinochloa crus-galli, 336 h, two weeks after treatment; for pest or weed control at 8966.8 g/ha: 8 lb/acre
Outline: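 Greenhouse pot-grown barnyard grass seedlings sprayed post-emergence at 8 lbs active compound per acre (some at 4 lbs/acre) in 38 gallons per acre, then sub-irrigated. Injury or control rated visually two weeks after treatment.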

[10] = system: Corn (CN); assay: Post-emergence herbicide test; type: in vivo; details: Zea mays, 336 h, two weeks after treatment; for pest or weed control at 8966.8 g/ha: 8 lb/acre
Outline: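 Greenhouse seedlings grown in potting soil and sprayed post-emergence at 8 lbs compound/acre (formulations also made for 4 lbs/acre) in 38 gallons/acre spray volume. Watering by sub-irrigation only. Injury or control rated visually two weeks after treatment.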

[11] = system: Yellow foxtail grass (YF); assay: Pre-emergence herbicide test; type: in vivo, Setaria glauca; details: Setaria, 336 h, two weeks after treatment; for pest or weed control at 8966.8 g/ha: 8 lb/acre
Outline: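 Visual rating of injury/control made two weeks after a pre-emergence spray of 8 or 4 lbs active per acre (38 gal/acre) onto pots seeded the previous day. Greenhouse watering by sub-irrigation only.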

[12] = system: Crabgrass (CG); assay: Pre-emergence herbicide test; type: in vivo, Digitaria sanquinalis; details: Digitaria sanguinalis, pre-emergence, 336 h, two weeks after treatment; for pest or weed control at 8966.8 g/ha: 8 lb/acre
Outline: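 Crabgrass (Digitaria sanquinalis) was surface seeded in 3' plastic pots of potting soil, covered with screened soil, and watered by sub-irrigation in greenhouse trays. Pots were seeded one day before spraying in a hood with a moving belt and fixed nozzle. Plants stayed in the greenhouse on sub-irrigation, and pre-emergence control was rated visually two weeks after treatment.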

[13] = system: Corn (CN); assay: Pre-emergence herbicide test; type: in vivo; details: Zea mays, 336 h, two weeks after treatment; for pest or weed control at 8966.8 g/ha: 8 lb/acre
Outline: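 Visual injury/control ratings were made 2 weeks post-spray on corn pots seeded (4 seeds, seed-diameter depth) the day before treatment. Application was a belt-hood spray of 38 gal/acre delivering 8 lbs active per acre, with a 4 lbs/acre rate also formulated. Watering was by sub-irrigation throughout.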

[14] = system: Amaranth pigweed (PW); assay: Post-emergence herbicide test; type: in vivo, Amaranthus retroflexus; details: 336 h, two weeks after treatment; for pest or weed control at 8966.8 g/ha: 8 lb/acre
Outline: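 Visual injury or control ratings were made two weeks after spraying, with greenhouse watering by sub-irrigation only. Treatment was post-emergence, when pigweed seedlings had 1 or 2 true leaves, at 8 lbs active compound per acre (4 lbs/acre formulations also made) in a 38 gallons-per-acre spray volume.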

[15] = system: Yellow foxtail grass (YF); assay: Post-emergence herbicide test; type: in vivo, Setaria glauca; details: Setaria, 336 h, two weeks after treatment; for pest or weed control at 8966.8 g/ha: 8 lb/acre
Outline: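 Visual rating of injury/control made 2 weeks post-spray. Seedlings at a uniform growth stage in soil-filled pots received a hood spray of 8 lbs/acre active compound, 38 gallons/acre volume, with a 4 lbs/acre rate also formulated. Watering was by sub-irrigation only.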

[16] = system: Bean (BN); assay: Pre-emergence herbicide test; type: in vivo, Phaseolus vulgaris var. Black Valentine; details: Phaseolus vulgaris, 336 h, two weeks after treatment; for pest or weed control at 8966.8 g/ha: 8 lb/acre
Outline: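 Visual injury/control ratings were taken two weeks post-spray on sub-irrigated Phaseolus vulgaris var. Black Valentine. Pots were sown a day before treatment. Pre-emergence spray delivered 8 lbs actual compound per acre (or 4 lbs/acre) at 38 gallons per acre.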

[17] = system: Barnyard grass (BG); assay: Pre-emergence herbicide test; type: in vivo; details: Echinochloa crus-galli, 336 h, two weeks after treatment; for pest or weed control at 8966.8 g/ha: 8 lb/acre
Outline: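 Greenhouse pre-emergence spray test: pots seeded one day before treatment received compound at rates of 8 or 4 lb/acre (38 gal/acre). Visual injury/control scores for Echinochloa crus-galli taken at two weeks, with watering by sub-irrigation only.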

[18] = system: Turnip (TP); assay: Pre-emergence herbicide test; type: in vivo, Brassica sp.; details: Brassica rapa, pre-emergence, 336 h, two weeks after treatment; for pest or weed control at 8966.8 g/ha: 8 lb/acre
Outline: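 In this pre-emergence greenhouse test, turnip was seeded on the surface of potting soil in 3' plastic pots, lightly covered with screened soil, and watered from below. One day later the pots were sprayed in a belt-fed spray hood. Watering continued only by sub-irrigation, and percent control was visually scored two weeks after treatment.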

## CNC(=O)Nc1nnc(S(C)(=O)=O)s1 [Example 33]
[1]; 2 lb/acre
  pest or weed control at 2241.7 g/ha: 40%
[1]; 4 lb/acre
  pest or weed control at 4483.4 g/ha: 100%
[1]
  pest or weed control at 8966.8 g/ha: 100%
[2]; 2 lb/acre
  pest or weed control: 90%
[2]; 4 lb/acre
  pest or weed control at 4483.4 g/ha: 60%
[2]
  pest or weed control at 8966.8 g/ha: 90%
[3]; 2 lb/acre
  pest or weed control: 80%
[3]; 4 lb/acre
  pest or weed control at 4483.4 g/ha: 50%
[3]
  pest or weed control at 8966.8 g/ha: 40%
[4]; 2 lb/acre
  pest or weed control at 2241.7 g/ha: 80%
[4]; 4 lb/acre
  pest or weed control at 4483.4 g/ha: 60%
[4]
  pest or weed control at 8966.8 g/ha: 70%
[5]; 2 lb/acre
  pest or weed control at 2241.7 g/ha: 100%
[5]; 4 lb/acre
  pest or weed control at 4483.4 g/ha: 100%
[5]
  pest or weed control at 8966.8 g/ha: 100%
[6]; 2 lb/acre
  pest or weed control at 2241.7 g/ha: 50%
[6]; 4 lb/acre
  pest or weed control at 4483.4 g/ha: 60%
[6]
  pest or weed control at 8966.8 g/ha: 70%
[7]; 2 lb/acre
  pest or weed control at 2241.7 g/ha: 40%
[7]; 4 lb/acre
  pest or weed control at 4483.4 g/ha: 50%
[7]
  pest or weed control at 8966.8 g/ha: 50%
[8]; 2 lb/acre
  pest or weed control at 2241.7 g/ha: 90%
[8]; 4 lb/acre
  pest or weed control at 4483.4 g/ha: 80%
[8]
  pest or weed control at 8966.8 g/ha: 100%
[9]; 2 lb/acre
  pest or weed control at 2241.7 g/ha: 70%
[9]; 4 lb/acre
  pest or weed control at 4483.4 g/ha: 70%
[9]
  pest or weed control at 8966.8 g/ha: 100%
[10]; 2 lb/acre
  pest or weed control: 20%
[10]; 4 lb/acre
  pest or weed control at 4483.4 g/ha: 10%
[10]
  pest or weed control at 8966.8 g/ha: 100%
[11]; 2 lb/acre
  pest or weed control at 2241.7 g/ha: 70%
[11]; 4 lb/acre
  pest or weed control at 4483.4 g/ha: 90%
[11]
  pest or weed control at 8966.8 g/ha: 80%
[12]; 2 lb/acre
  pest or weed control: 90%
[12]; 4 lb/acre
  pest or weed control at 4483.4 g/ha: 90%
[12]
  pest or weed control at 8966.8 g/ha: 90%
[13]; 2 lb/acre
  pest or weed control at 2241.7 g/ha: 20%
[13]; 4 lb/acre
  pest or weed control at 4483.4 g/ha: 20%
[13]
  pest or weed control at 8966.8 g/ha: 70%
[14]; 2 lb/acre
  pest or weed control at 2241.7 g/ha: 50%
[14]; 4 lb/acre
  pest or weed control at 4483.4 g/ha: 100%
[14]
  pest or weed control at 8966.8 g/ha: 100%
[15]; 2 lb/acre
  pest or weed control: 70%
[15]; 4 lb/acre
  pest or weed control at 4483.4 g/ha: 100%
[15]
  pest or weed control at 8966.8 g/ha: 90%
[16]; 2 lb/acre
  pest or weed control at 2241.7 g/ha: 100%
[16]; 4 lb/acre
  pest or weed control at 4483.4 g/ha: 90%
[16]
  pest or weed control at 8966.8 g/ha: 90%
[17]; 2 lb/acre
  pest or weed control at 2241.7 g/ha: 70%
[17]; 4 lb/acre
  pest or weed control at 4483.4 g/ha: 90%
[17]
  pest or weed control at 8966.8 g/ha: 80%
[18]; 2 lb/acre
  pest or weed control at 2241.7 g/ha: 90%
[18]; 4 lb/acre
  pest or weed control at 4483.4 g/ha: 100%
[18]
  pest or weed control at 8966.8 g/ha: 100%

## CNC(=O)N(C)c1nnc(SC)s1 [Example 38]
[1]
  pest or weed control at 8966.8 g/ha: 100%
[2]
  pest or weed control at 8966.8 g/ha: 80%
[3]
  pest or weed control at 8966.8 g/ha: 80%
[4]
  pest or weed control at 8966.8 g/ha: 80%
[5]
  pest or weed control at 8966.8 g/ha: 100%
[6]
  pest or weed control at 8966.8 g/ha: 90%
[7]
  pest or weed control at 8966.8 g/ha: 90%
[8]
  pest or weed control at 8966.8 g/ha: 100%
[9]
  pest or weed control at 8966.8 g/ha: 90%
[10]
  pest or weed control at 8966.8 g/ha: 100%
[11]
  pest or weed control at 8966.8 g/ha: 100%
[12]
  pest or weed control at 8966.8 g/ha: 100%
[13]
  pest or weed control at 8966.8 g/ha: 80%
[14]
  pest or weed control at 8966.8 g/ha: 100%
[15]
  pest or weed control at 8966.8 g/ha: 100%
[16]
  pest or weed control at 8966.8 g/ha: 100%
[17]
  pest or weed control at 8966.8 g/ha: 100%
[18]
  pest or weed control at 8966.8 g/ha: 100%
